A short description of this data set: Pharmaceutical performance: Aerolizer DPI with Next Generation Pharmaceutical Impactor (NGI). Particulars: nominally 2 mg powder, NGI at 60 lpm for 4 seconds, respirable limit 4.5 micrometers. It counts as physicochemical. The protocol: Samples of micronized lactose and micronised budesonide powder were tested in addition to testing samples of nanoparticle-modified lactose and nanoparticle-modified budesonide powders. The NGI was coupled with a USP throat (United States Pharmacopeia, USP 24 <601>Aerosols, Metered Dose Inhalers, and Dry Powder Inhalers) and operated at a volumetric flow rate of 60 liters per minute (lpm) for a collection time of four seconds. A suitable coupler was affixed to the USP throat to provide an air-tight seal between the DPI device and the throat. For all testing, the stage cups of the NGI were coated with a surfactant to prevent particle bounce and re-entrainment. The amount of lactose or budesonide collected on each component of the NGI testing apparatus was determined by rinsing the component with a measured volume of an appropriate solvent and subjecting the rinsed material to high pressure liquid chromatography (HPLC) analysis with charged aerosol detection to determine lactose or budesonide concentration. Data that was returned from HPLC analysis was analyzed to determine the average amount of drug collected on the DPI and capsule, the USP throat, and on each component of the NGI per delivered dose. Using the individual component values, the respirable fraction and delivery efficiency were calculated for each powder sample. […]

This note sets out measurements from patent publication US20110039947A1, “SURFACE-MODIFIED NANOPARTICLES” (3M Innovative Properties Company, priority 2008, published 2011).

`O.OC[C@H]1O[C@@H](O[C@H]2[C@H](O)[C@@H](O)[C@@H](O)O[C@@H]2CO)[C@H](O)[C@@H](O)[C@H]1O` [Comparative Example C4, α-Lactose monohydrate]: the “% Delivery Efficiency” value was 34% and the “% Respirable Fraction” value came to 63%.
